Data: ChEMBL document CHEMBL1201862, “PubChem BioAssay data set” (2004)
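Results reflect a 48-hour exposure of cells in 96-well plates to compound at five concentrations. GI50: concentration for 50% inhibition of growth.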 Calls of active or inactive are those of the source. Cut-off read from the data, not from the text of the source: active = GI50 up to about 1.1 µM and inactive = higher.

Experiments:
Test in all cases: NCI tumour cell line growth inhibition, 48 h
NCI-H226 = system: NCI-H226
MOLT-4 = system: MOLT-4
SK-OV-3 = system: SK-OV-3
HCT-15 = system: HCT-15
IGROV-1 = system: IGROV-1
EKVX = system: EKVX
Hs-578T = system: Hs-578T
NCI-H23 = system: NCI-H23
U-251 = system: U-251
K562 = system: K562
CCRF-CEM = system: CCRF-CEM
OVCAR-5 = system: OVCAR-5
MCF7 = system: MCF7
TK-10 = system: TK-10
SF-539 = system: SF-539
OVCAR-4 = system: OVCAR-4
HOP-62 = system: HOP-62
A498 = system: A498
M14 = system: M14
OVCAR-8 = system: OVCAR-8

Row | Structure (SMILES) | GI50 (NCI-H226) | GI50 (MOLT-4) | GI50 (SK-OV-3) | GI50 (HCT-15) [µM] | GI50 (IGROV-1) | GI50 (EKVX) | GI50 (Hs-578T) | GI50 (NCI-H23) | GI50 (U-251) | GI50 (K562) | GI50 (CCRF-CEM) | GI50 (OVCAR-5) | GI50 (MCF7) | GI50 (TK-10) | GI50 (SF-539) | GI50 (OVCAR-4) | GI50 (HOP-62) | GI50 (A498) | GI50 (M14) | GI50 (OVCAR-8)
1 | CN(C)CCCn1c2c3ccccc3ccc2c2oc(=O)c3ccccc3c21 | > 35.2 µM (inactive) | 0.986 µM (active) | 14.8 µM (inactive) | 1.57 | 7.93 µM (inactive) | 12.7 µM (inactive) | > 36.6 µM (inactive) | 6.82 µM (inactive) | 3.26 µM (inactive) | 2.45 µM (inactive) | 3.31 µM (inactive) | 32.6 µM (inactive) | 7.19 µM (inactive) | 14.2 µM (inactive) | 4.66 µM (inactive) | 6.38 µM (inactive) | 5.7 µM (inactive) | 13.3 µM (inactive) | 6.03 µM (inactive) | 3.57 µM (inactive)
2 | C=C1CC(COc2cc(=O)oc3ccccc23)(c2ccccc2)OC1=O (stereo not given) | 8.17 µM (inactive) | 7.94 µM (inactive) | 3.27 µM (inactive) | 1.82 | 1.51 µM (inactive) | 6.27 µM (inactive) | 3.53 µM (inactive) | 1.77 µM (inactive) | 9.4 µM (inactive) | 0.637 µM (active) | 0.625 µM (active) | 8.07 µM (inactive) | 0.413 µM (active) | 1.59 µM (inactive) | 2.74 µM (inactive) | 2.12 µM (inactive) | 8.53 µM (inactive) | 2.38 µM (inactive) | 1.51 µM (inactive) | 1.86 µM (inactive)
3 | S=C1NC(c2ccccc2)NC(c2ccccc2)S1 (stereo not given) | > 100 µM (inactive) | > 100 µM (inactive) | > 100 µM (inactive) | 51.1 | > 100 µM (inactive) | > 100 µM (inactive) | > 100 µM (inactive) | > 100 µM (inactive) | 39.4 µM (inactive) | 42.2 µM (inactive) | 2.2 µM (inactive) | > 100 µM (inactive) | 28.2 µM (inactive) | > 100 µM (inactive) | > 100 µM (inactive) | > 100 µM (inactive) | 74.8 µM (inactive) | > 100 µM (inactive) | > 100 µM (inactive) | > 100 µM (inactive)
4 | C/C(=N\NS(=O)(=O)c1ccc(C)cc1)c1ccccn1 | 32.9 µM (inactive) | 21.2 µM (inactive) | 55.3 µM (inactive) | 38.5 | 47.2 µM (inactive) | 35.5 µM (inactive) | 87.3 µM (inactive) | 54.1 µM (inactive) | 88.5 µM (inactive) | 83.8 µM (inactive) | 18.5 µM (inactive) | > 100 µM (inactive) | 53.8 µM (inactive) | 70.6 µM (inactive) | 40.8 µM (inactive) | 68.2 µM (inactive) | 62.2 µM (inactive) | 24.3 µM (inactive) | 34.6 µM (inactive) | 50.8 µM (inactive)
5 | CCOC(=O)C(C(=O)OCC)=C1NC2(c3ccccc3Nc3ccccc32)C(C#N)S1 (stereo not given) | 12 µM (inactive) | 3.53 µM (inactive) | 12.7 µM (inactive) | 5.78 | 11.1 µM (inactive) | 13.7 µM (inactive) | 19.1 µM (inactive) | 4.63 µM (inactive) | 12.1 µM (inactive) | 7.53 µM (inactive) | 6.08 µM (inactive) | 16.7 µM (inactive) | 3.39 µM (inactive) | 13.5 µM (inactive) | 11 µM (inactive) | 4.3 µM (inactive) | 12.2 µM (inactive) | 13.8 µM (inactive) | 7.46 µM (inactive) | 10.9 µM (inactive)
6 | C[C@]12CC/C(=N\OCCN3CCCC3)C=C1CCC1C2CC[C@@]2(C)C1CC[C@]2(C)O (stereo not given in full) | 2.9 µM (inactive) | 3.74 µM (inactive) | 18.5 µM (inactive) | 3.29 | 8.95 µM (inactive) | 6.93 µM (inactive) | 13.8 µM (inactive) | 12.2 µM (inactive) | 7.11 µM (inactive) | 2.4 µM (inactive) | 3.56 µM (inactive) | 33.3 µM (inactive) | 5.37 µM (inactive) | 15.8 µM (inactive) | 6.62 µM (inactive) | 16.1 µM (inactive) | 13.1 µM (inactive) | 0.647 µM (active) | 13.9 µM (inactive) | 14 µM (inactive)
7 | Cc1ccc(NC(=S)N/N=C(/c2ccccc2)c2ccccn2)cc1 | 0.124 µM (active) | < 0.0118 µM (active) | 0.0308 µM (active) | < 0.019 | < 0.0173 µM (active) | 0.0675 µM (active) | 13.1 µM (inactive) | < 0.0187 µM (active) | 0.0265 µM (active) | < 0.0117 µM (active) | 0.0109 µM (active) | 0.0233 µM (active) | 0.0164 µM (active) | 0.0631 µM (active) | 0.729 µM (active) | 0.241 µM (active) | 0.16 µM (active) | 0.815 µM (active) | < 0.01 µM (active) | 0.0569 µM (active)
8 | O=C1c2c(F)c(F)c(F)c(F)c2SC2=Nc3cccc4cccc(c34)N12 | 11.4 µM (inactive) | 2.16 µM (inactive) | 4.14 µM (inactive) | 4.92 | 11.4 µM (inactive) | 9.79 µM (inactive) | 2.86 µM (inactive) | 3.88 µM (inactive) | 3.78 µM (inactive) | 2.02 µM (inactive) | 3.31 µM (inactive) | 16.1 µM (inactive) | 3.78 µM (inactive) | 13.3 µM (inactive) | 6.18 µM (inactive) | 3.49 µM (inactive) | 13.7 µM (inactive) | 18.5 µM (inactive) | 2.92 µM (inactive) | 5.41 µM (inactive)
9 | CSc1ncc2c(C#N)c3[nH]c4ccccc4n3c(=O)c2n1 | 34.1 µM (inactive) | 4.28 µM (inactive) | 29.4 µM (inactive) | 9.71 | 18.1 µM (inactive) | 33.9 µM (inactive) | 30.6 µM (inactive) | 14.8 µM (inactive) | 15.8 µM (inactive) | 5.18 µM (inactive) | 4.92 µM (inactive) | 55.1 µM (inactive) | 19.7 µM (inactive) | 31.5 µM (inactive) | 17.3 µM (inactive) | 6.84 µM (inactive) | 19.8 µM (inactive) | 9.84 µM (inactive) | 16.7 µM (inactive) | 7.85 µM (inactive)
10 | Nc1ccccc1-c1noc(=O)[nH]1 | > 100 µM (inactive) | > 100 µM (inactive) | > 100 µM (inactive) | > 100 | 60.4 µM (inactive) | > 100 µM (inactive) | > 100 µM (inactive) | > 100 µM (inactive) | > 100 µM (inactive) | > 100 µM (inactive) | > 100 µM (inactive) | > 100 µM (inactive) | > 100 µM (inactive) | > 100 µM (inactive) | > 100 µM (inactive) | > 100 µM (inactive) | > 100 µM (inactive) | > 100 µM (inactive) | > 100 µM (inactive) | > 100 µM (inactive)
11 | COc1ccc(/C=N/c2ccc(-c3nc4ccccc4[nH]3)cc2)cc1OC | > 100 µM (inactive) | > 100 µM (inactive) | > 100 µM (inactive) | > 100 | 49.3 µM (inactive) | > 100 µM (inactive) | > 100 µM (inactive) | > 100 µM (inactive) | 42.5 µM (inactive) | > 100 µM (inactive) | > 100 µM (inactive) | > 100 µM (inactive) | 25.9 µM (inactive) | > 100 µM (inactive) | > 100 µM (inactive) | > 100 µM (inactive) | > 100 µM (inactive) | > 100 µM (inactive) | > 100 µM (inactive) | 39.6 µM (inactive)
12 | O=C1NC2=NOC(=O)NC2=NO1 | > 200 µM (inactive) | > 200 µM (inactive) | > 200 µM (inactive) | > 200 | > 200 µM (inactive) | > 200 µM (inactive) | > 200 µM (inactive) | > 200 µM (inactive) | > 200 µM (inactive) | > 200 µM (inactive) | > 200 µM (inactive) | > 200 µM (inactive) | > 200 µM (inactive) | > 200 µM (inactive) | > 200 µM (inactive) | > 200 µM (inactive) | > 200 µM (inactive) | > 200 µM (inactive) | > 200 µM (inactive) | > 200 µM (inactive)
13 | C1=C(c2ccccc2)C(N2CCOCC2)Oc2ccccc21 (stereo not given) | > 100 µM (inactive) | 81.7 µM (inactive) | > 100 µM (inactive) | > 100 | > 100 µM (inactive) | > 100 µM (inactive) | > 100 µM (inactive) | > 100 µM (inactive) | > 100 µM (inactive) | 91.8 µM (inactive) | > 100 µM (inactive) | > 100 µM (inactive) | > 100 µM (inactive) | > 100 µM (inactive) | > 100 µM (inactive) | > 100 µM (inactive) | > 100 µM (inactive) | 25.5 µM (inactive) | > 100 µM (inactive) | > 100 µM (inactive)
14 | COc1ccc(/C=C/C(=O)c2ccccc2)cc1OC | 19.8 µM (inactive) | 13.5 µM (inactive) | 14.2 µM (inactive) | 7.03 | 17.2 µM (inactive) | 14.8 µM (inactive) | 25 µM (inactive) | 20.7 µM (inactive) | 9.59 µM (inactive) | 3.21 µM (inactive) | 2.53 µM (inactive) | 16.9 µM (inactive) | 2.52 µM (inactive) | 17.2 µM (inactive) | 11.1 µM (inactive) | 16.7 µM (inactive) | 15.4 µM (inactive) | 16.4 µM (inactive) | 15 µM (inactive) | 16.3 µM (inactive)
